# Literature values as cited in US8871945B2, “Process for preparation of rufinamide” (priority 2010, dated 2014).
# Assays:
# [1] = system: sodium channels; settings: Rufinamide ≧1 μM; after a prolonged prepulse; cultured cortical neurons
# [2] = system: sodium channels; settings: cultured cortical neurons; read-out: EC50 for limiting sustained repetitive firing of sodium-dependent action potentials
smiles,measurement,setting,value
"NC(=O)c1cn(Cc2c(F)cccc2F)nn1 [Rufinamide, 1-(2,6-difluorobenzyl)-1H-1,2,3-triazole-4-carboxamide]",sodium channel recovery from inactivation,[1],significantly slowed
same,EC50,[2],3.8 µM
